Test results: patent US20060276464A1, “Diarylsulfone sulfonamides and use thereof” (Wyeth, priority 2005, published 2006)
Where two headings read alike, the source gives them in different places.

Molecular target: T1, SFRP-1 (Homo sapiens, UniProt Q8N474)
T1 sequence (Q8N474 32-314): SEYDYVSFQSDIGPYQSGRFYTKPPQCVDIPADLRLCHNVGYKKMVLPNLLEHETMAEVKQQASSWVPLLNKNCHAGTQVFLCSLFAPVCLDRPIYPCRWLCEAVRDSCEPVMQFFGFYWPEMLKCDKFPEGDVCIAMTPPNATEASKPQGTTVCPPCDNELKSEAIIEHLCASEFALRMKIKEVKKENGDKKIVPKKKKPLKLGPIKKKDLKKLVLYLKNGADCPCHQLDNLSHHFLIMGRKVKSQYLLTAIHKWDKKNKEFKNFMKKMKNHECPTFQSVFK
Experiment: Cell-based assay for in vitro measurement of SFRP-1/SARP2 antagonist activity (U2OS cells co-transfected with 16x TCF-tk-Luciferase reporter, Wnt and hSFRP-1);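 note: U2OS cells co-transfected with a TCF-tk luciferase reporter, a Wnt vector, hSFRP-1 or empty vector and CMV-βgal, luciferase luminescence read in cell lysates alongside βgal activity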
Conditions: for fold induction at 30 µM / fold induction at 15 µM / fold induction at 10 µM / fold induction at 20 µM: U2OS; for fold induction at 10 µM: read-out: Fold Induction with SFRP-1, U2OS cells, single dose 10 μM, luciferase reporter, fold induction over SFRP-1 control

[1] = read-out: Fold Induction with SFRP-1, Conc 30 μM, with SFRP-1, fold induction over SFRP-1 control, single dose
[2] = read-out: Fold Induction without SFRP-1, Conc 30 μM, without SFRP-1, single dose
[3] = read-out: Fold Induction with SFRP-1, Conc 15 μM, with SFRP-1, fold induction over SFRP-1 control, single dose
[4] = read-out: Fold Induction without SFRP-1, Conc 15 μM, without SFRP-1, single dose
[5] = read-out: Fold Induction with SFRP-1, Conc 15 μM, single dose, luciferase reporter, fold induction over SFRP-1 control, cells with SFRP-1
[6] = read-out: Fold Induction without SFRP-1, Conc 15 μM, single dose, luciferase reporter, cells without SFRP-1 (specificity control)

Structure (SMILES) | fold induction at 15 µM [3] | fold induction at 15 µM [4] | other results
O=S(=O)(NCCCN1CCCC1)c1cccc(S(=O)(=O)c2ccccc2)c1 [Example 200, 3-(phenylsulfonyl)-N-(3-pyrrolidin-1-ylpropyl)benzenesulfonamide] |  |  | fold induction at 30 µM [1]: 1.4; fold induction at 30 µM [2]: 1.8
C=CCN(CCc1ccccc1F)S(=O)(=O)c1cc(S(=O)(=O)c2ccc(C)cc2)ccc1C [Example 276, N-allyl-N-[2-(2-fluorophenyl)ethyl]-2-methyl-5-[(4-methylphenyl)sulfonyl]benzene sulfonamide] | 0.8 | 1 | 
CC(C)(C)c1ccc(C(=O)NCCNS(=O)(=O)c2cc(S(=O)(=O)c3ccccc3)ccc2C(F)(F)F)cc1 [Example 776, 4-tert-Butyl-N-[2-({[5-(phenylsulfonyl)-2-(trifluoromethyl)phenyl]sulfonyl}amino)ethyl]benzamide] |  |  | fold induction at 10 µM: 0.9
Cc1c(S(=O)(=O)NCCc2ccccc2)cccc1S(=O)(=O)c1ccccc1 [Example 302, 2-methyl-N-(2-phenylethyl)-3-(phenylsulfonyl)benzenesulfonamide] | 1.2 | 1.2 | 
CCCNS(=O)(=O)c1cc(S(=O)(=O)c2ccccc2)ccc1C [Example 394, 2-methyl-5-(phenylsulfonyl)-N-propylbenzenesulfonamide] | 1.5 | 1 | 
Cc1ccc(S(=O)(=O)c2ccc(C)c(S(=O)(=O)N(C)CCc3ccccc3F)c2)cc1 [Example 275, N-[2-(2-fluorophenyl)ethyl]-N,2-dimethyl-5-[(4-methylphenyl)sulfonyl]benzenesulfonamide] | 0.8 | 0.8 | 
Cc1ccc(S(=O)(=O)c2ccccc2)cc1S(=O)(=O)NC1Cc2ccccc2C1 [Example 246, N-2,3-dihydro-1H-inden-2-yl-2-methyl-5-(phenylsulfonyl)benzenesulfonamide] |  |  | fold induction at 20 µM (read-out: Fold Induction with SFRP-1, Conc 20 μM, with SFRP-1, fold induction over SFRP-1 control, single dose): 2.2; fold induction at 20 µM (read-out: Fold Induction without SFRP-1, Conc 20 μM, without SFRP-1, single dose): 0.8
Cc1ccc(S(=O)(=O)c2cccc(Cl)c2)cc1S(=O)(=O)NCCCn1ccnc1 [Example 342, 5-[(3-chlorophenyl)sulfonyl]-N-[3-(1H-imidazol-1-yl)propyl]-2-methylbenzenesulfonamide] | 3.3 | 1.1 | 
O=S(=O)(NCCCN1CCOCC1)c1cccc(S(=O)(=O)c2ccccc2)c1 [Example 185, N-(3-morpholin-4-ylpropyl)-3-(phenylsulfonyl)benzenesulfonamide] |  |  | fold induction at 30 µM [1]: 1.3; fold induction at 30 µM [2]: 1.1
CC(C)(C)OC(=O)NC1CCN(S(=O)(=O)c2cc(S(=O)(=O)c3ccccc3)ccc2Cl)C1 (centres unmarked) [Example 638, tert-butyl(1-{[2-chloro-5-(phenylsulfonyl)phenyl]sulfonyl}pyrrolidin-3-yl)carbamate] |  |  | fold induction at 15 µM [5]: 1.2; fold induction at 15 µM [6]: 1.1
Cc1ccc(S(=O)(=O)c2ccccc2)cc1S(=O)(=O)N1CCN(CCCN2CCOCC2)CC1 [Example 283, 4-[3-(4-{[2-methyl-5-(phenylsulfonyl)phenyl]sulfonyl}piperazin-1-yl)propyl]morpholine] | 1.8 | 1.3 | 
Cc1ccc(S(=O)(=O)c2ccc(C(C)(O)Cc3ccccc3)cc2)cc1S(=O)(=O)NCCc1ccccn1 (centres unmarked) [Example 408, 5-{[4-(1-hydroxy-1-methyl-2-phenylethyl)phenyl]sulfonyl}-2-methyl-N-(2-pyridin-2-ylethyl)benzenesulfonamide] | 1.2 | 1 | 
Cc1ccc(S(=O)(=O)c2ccccc2)cc1S(=O)(=O)NCCc1ccccc1Cl [Example 31, N-[2-(2-chlorophenyl)ethyl]-2-methyl-5-(phenylsulfonyl)benzenesulfonamide] |  |  | fold induction at 30 µM [1]: 0.4; fold induction at 30 µM [2]: 0.5
O=S(=O)(c1ccccc1)c1ccc(Cl)c(S(=O)(=O)N2CCN(CCN3CCOCC3)CC2)c1 [Example 636, 4-[2-(4-{[2-chloro-5-(phenylsulfonyl)phenyl]sulfonyl}piperazin-1-yl)ethyl]morpholine] |  |  | fold induction at 15 µM [5]: 1.7; fold induction at 15 µM [6]: 1.1
Cc1ccc(S(=O)(=O)c2ccccc2C)cc1S(=O)(=O)NCCc1ccccn1 [Example 430, 2-methyl-5-[(2-methylphenyl)sulfonyl]-N-(2-pyridin-2-ylethyl)benzenesulfonamide] | 1.7 | 0.8 | 
Cc1ccc(S(=O)(=O)c2ccccc2)cc1S(=O)(=O)NCCc1c[nH]c2ccccc12 [Example 294, N-[2-(1H-indol-3-yl)ethyl]-2-methyl-5-(phenylsulfonyl)benzenesulfonamide] | 2.3 | 1.5 | 
Cc1ccc(S(=O)(=O)c2ccccc2)cc1S(=O)(=O)NCCc1ccccc1 [Example 1, 2-Methyl-N-(2-phenylethyl)-5-(phenylsulfonyl)benzene sulfonamide] |  |  | fold induction at 30 µM [1]: 1.5; fold induction at 30 µM [2]: 0.6
CC(C)(CO)NS(=O)(=O)c1cc(S(=O)(=O)c2ccccc2)ccc1Cl [Example 655, 2-chloro-N-(2-hydroxy-1,1-dimethylethyl)-5-(phenylsulfonyl)benzenesulfonamide] |  |  | fold induction at 10 µM: 1.1
Cc1ccc(S(=O)(=O)c2ccc(C(C)(C)C)cc2)cc1S(=O)(=O)NCCc1ccccn1 [Example 438, 5-[(4-tert-butylphenyl)sulfonyl]-2-methyl-N-(2-pyridin-2-ylethyl)benzenesulfonamide] | 1.6 | 1 | 
COc1ccc(S(=O)(=O)c2ccccc2)cc1S(=O)(=O)NCCc1ccc(S(N)(=O)=O)cc1 [Example 154, N-{2-[4-(aminosulfonyl)phenyl]ethyl}-2-methoxy-5-(phenylsulfonyl)benzenesulfonamide] | 1.4 | 1.3 | 
Cc1ccc(S(=O)(=O)c2ccc(C(C)(O)c3ccccc3)cc2)cc1S(=O)(=O)NCCc1ccccn1 (centres unmarked) [Example 407, 5-{[4-(1-hydroxy-1-phenylethyl)phenyl]sulfonyl}-2-methyl-N-(2-pyridin-2-ylethyl)benzenesulfonamide] | 1.2 | 0.9 | 
COC(=O)[C@@H](Cc1ccccc1)NS(=O)(=O)c1cc(S(=O)(=O)c2ccccc2)ccc1C [Example 365, methyl N-{[2-methyl-5-(phenylsulfonyl)phenyl]sulfonyl}-D-phenylalaninate] | 1.3 | 1.1 | 
Cc1ccc(S(=O)(=O)c2ccc(C#N)cc2)cc1S(=O)(=O)NCCc1ccccn1 [Example 428, 5-[(4-cyanophenyl)sulfonyl]-2-methyl-N-(2-pyridin-2-ylethyl)benzenesulfonamide] | 1.3 | 0.8 | 
Cc1ccc(S(=O)(=O)c2ccccc2)cc1S(=O)(=O)NCCc1ccncc1 [Example 208, 2-methyl-5-(phenylsulfonyl)-N-(2-pyridin-4-ylethyl)benzenesulfonamide] | 2.6 | 0.9 | 
CC(=O)c1ccc(S(=O)(=O)c2ccc(C)c(S(=O)(=O)NC3CCOCC3)c2)cc1 [Example 380, 5-[(4-acetylphenyl)sulfonyl]-2-methyl-N-(tetrahydro-2H-pyran-4-yl)benzenesulfonamide] | 0.5 | 0.6 | 
CN1CCN(CCCNS(=O)(=O)c2cccc(S(=O)(=O)c3ccccc3)c2)CC1 [Example 201, N-[3-(4-methylpiperazin-1-yl)propyl]-3-(phenylsulfonyl)benzenesulfonamide] |  |  | fold induction at 30 µM [1]: 1.1; fold induction at 30 µM [2]: 1.2
Cc1ccc(S(=O)(=O)c2ccc(F)cc2)cc1S(=O)(=O)NC1CCN(C(=O)OC(C)(C)C)CC1 [Example 789, tert-butyl 4-[({5-[(4-fluorophenyl)sulfonyl]-2-methylphenyl}sulfonyl)amino]piperidine-1-carboxylate] |  |  | fold induction at 10 µM: 1.5
Cc1cc(S(=O)(=O)c2ccccc2)cc(S(=O)(=O)NCCn2ccnc2)c1C [Example 347, N-[2-(1H-imidazol-1-yl)ethyl]-2,3-dimethyl-5-(phenylsulfonyl)benzenesulfonamide] | 2.9 | 1.1 | 
Cc1ccc(S(=O)(=O)c2ccc(F)cc2)cc1S(=O)(=O)NCCN(C)C [Example 172, N-[2-(dimethylamino)ethyl]-5-[(4-fluorophenyl)sulfonyl]-2-methylbenzenesulfonamide] | 1.9 | 1.1 | 
COCCCNS(=O)(=O)c1cc(S(=O)(=O)c2ccc(F)cc2)ccc1C [Example 173, 5-[(4-fluorophenyl)sulfonyl]-N-(3-methoxypropyl)-2-methylbenzenesulfonamide] | 2.5 | 0.8 | Fold Induction with SFRP-1 (Conc 15 μM, with SFRP-1, fold induction over SFRP-1 control, single dose): 2 fold; Fold Induction without SFRP-1 (Conc 15 μM, without SFRP-1, single dose): 1 fold
